Tests used:
[1] = system: cGAS activity in THP1 cells (IFNb as marker); experiment: Cellular assay to measure cGAS activity (IFNb production in PMA-differentiated THP1 cells stimulated by RDG-Adenovirus-GFP); assay type: cell-based, human; settings: Homo sapiens, THP-1, THP1 cells, PMA differentiated, RDG-Adenovirus-GFP 1000 MOI, IFNb AlphaLISA, overnight incubation; read-out: IC50 (μM), Cellular assay for Compounds 95-348
Procedure, shortened: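 The readout is secreted IFNb measured by AlphaLISA after overnight compound exposure. THP1 cells, differentiated with PMA for 24 h and rested overnight, were infected with RDG-Adenovirus-GFP (1000 MOI, 4 h) before compounds were added; IC50 came from a 4-parameter logistic fit of inhibition against log concentration.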

recombinant human cGAS = recombinant human cGAS (Homo sapiens (Human), UniProt Q8N884); experiment: In vitro inhibition assay of cGAS activity (cGAMP production, RapidFire mass spectrometry); assay type: biochemical; settings: 10 nM recombinant human cGAS, 60 nM 75-bp dsDNA, ATP, GTP, room temperature 3 hours, read-out: IC50 (μM), In vitro inhibition assay for Compounds 95-348
Procedure, shortened: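 Product cGAMP was quantified by RapidFire MS against a difluoro-cGAMP internal standard after a formic acid quench. The reaction contained 10 nM recombinant full-length human cGAS, 75-bp dsDNA (60 nM), ATP and GTP (50 μM) and ran for 3 h at room temperature. IC50 values came from 4-parameter nonlinear regression.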

Chain of recombinant human cGAS (Q8N884 whole entry): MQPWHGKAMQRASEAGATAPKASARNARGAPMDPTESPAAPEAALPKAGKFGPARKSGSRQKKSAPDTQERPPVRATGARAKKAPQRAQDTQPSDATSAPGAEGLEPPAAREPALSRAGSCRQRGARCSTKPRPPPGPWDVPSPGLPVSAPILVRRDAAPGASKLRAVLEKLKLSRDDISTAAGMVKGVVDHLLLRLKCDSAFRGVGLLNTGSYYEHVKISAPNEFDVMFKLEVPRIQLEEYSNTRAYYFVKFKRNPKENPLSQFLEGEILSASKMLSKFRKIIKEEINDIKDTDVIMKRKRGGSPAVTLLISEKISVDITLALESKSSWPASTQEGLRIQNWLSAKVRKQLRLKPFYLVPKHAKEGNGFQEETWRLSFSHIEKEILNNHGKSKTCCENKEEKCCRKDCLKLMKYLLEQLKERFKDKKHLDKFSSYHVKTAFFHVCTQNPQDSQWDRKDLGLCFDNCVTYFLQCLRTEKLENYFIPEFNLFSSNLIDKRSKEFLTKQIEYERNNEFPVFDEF

Compound | IC50 [1] [µM] | IC50 (recombinant human cGAS) [µM]
N#CCOc1cc(Cl)c(Cl)c2c1c(-c1cn[nH]c1)c1n2CCN(C(=O)CN2CCOCC2)C1 [Example 289, 2-((6,7-Dichloro-2-(2-morpholinoacetyl)-10-(1H-pyrazol-4-yl)-1,2,3,4-tetrahydropyrazino[1,2-a]indol-9-yl)oxy)acetonitrile] | 3.73 | 0.0303
N#CCOc1cc(Cl)c(Cl)c2c1c(-c1cn[nH]c1)c1n2CCN(C(=O)CN2CCOCC2=O)C1 [Example 290, 2-((6,7-Dichloro-2-(2-(3-oxomorpholino)acetyl)-10-(1H-pyrazol-4-yl)-1,2,3,4-tetrahydropyrazino[1,2-a]indol-9-yl)oxy)acetonitrile] | 6.97 | 0.0321
CN1CC(C(=O)N2CCn3c(c(-c4cn[nH]c4)c4c(OCC#N)cc(Cl)c(Cl)c43)C2)CC1=O (stereo not drawn) [Example 291, 2-((6,7-Dichloro-2-(1-methyl-5-oxopyrrolidine-3-carbonyl)-10-(1H-pyrazol-4-yl)-1,2,3,4-tetrahydropyrazino[1,2-a]indol-9-yl)oxy)acetonitrile] | 4.91 | 0.0325
N#CCOc1cc(Cl)c(Cl)c2c1c(-c1cn[nH]c1)c1n2CCN(C(=O)CCn2cncn2)C1 [Example 292, 2-((2-(3-(1H-1,2,4-Triazol-1-yl)propanoyl)-6,7-dichloro-10-(1H-pyrazol-4-yl)-1,2,3,4-tetrahydropyrazino[1,2-a]indol-9-yl)oxy)acetonitrile] | 4.08 | 0.0365
Cc1nc(C)n(CC(=O)N2CCn3c(c(-c4cn[nH]c4)c4c(OCC#N)cc(Cl)c(Cl)c43)C2)n1 [Example 293, 2-((6,7-Dichloro-2-(2-(3,5-dimethyl-1H-1,2,4-triazol-1-yl)acetyl)-10-(1H-pyrazol-4-yl)-1,2,3,4-tetrahydropyrazino[1,2-a]indol-9-yl)oxy)acetonitrile] | > 10 | 0.0447
CN1CCOC(C(=O)N2CCn3c(c(-c4cn[nH]c4)c4c(OCC#N)cc(Cl)c(Cl)c43)C2)C1 (stereo not drawn) [Example 294, 2-((6,7-Dichloro-2-(4-methylmorpholine-2-carbonyl)-10-(1H-pyrazol-4-yl)-1,2,3,4-tetrahydropyrazino[1,2-a]indol-9-yl)oxy)acetonitrile] | 0.366 | 0.0479
N#CCOc1cc(Cl)c(Cl)c2c1c(-c1cn[nH]c1)c1n2CCN(C(=O)c2nccnc2C(=O)N2CCCCC2)C1 [Example 295, 2-((6,7-Dichloro-2-(3-(piperidine-1-carbonyl)pyrazine-2-carbonyl)-10-(1H-pyrazol-4-yl)-1,2,3,4-tetrahydropyrazino[1,2-a]indol-9-yl)oxy)acetonitrile] | 2.14 | 0.0561
N#CCOc1cc(Cl)c(Cl)c2c1c(-c1cn[nH]c1)c1n2CCN(C(=O)c2nccnc2C(=O)N2CCOCC2)C1 [Example 296, 2-((6,7-Dichloro-2-(3-(morpholine-4-carbonyl)pyrazine-2-carbonyl)-10-(1H-pyrazol-4-yl)-1,2,3,4-tetrahydropyrazino[1,2-a]indol-9-yl)oxy)acetonitrile] | 4.78 | 0.061
CN1CCC(C(=O)N2CCn3c(c(-c4cn[nH]c4)c4ccc(Cl)c(Cl)c43)C2)CC1=O (stereo not drawn) [Example 303, 4-(6,7-Dichloro-10-(1H-pyrazol-4-yl)-1,2,3,4-tetrahydropyrazino[1,2-a]indole-2-carbonyl)-1-methylpiperidin-2-one] | > 10 | 0.0349
CN1CCOCC1C(=O)N1CCn2c(c(-c3cn[nH]c3)c3ccc(Cl)c(Cl)c32)C1 (stereo not drawn) [Example 309, (6,7-Dichloro-10-(1H-pyrazol-4-yl)-3,4-dihydropyrazino[1,2-a]indol-2(1H)-yl)(4-methylmorpholin-3-yl)methanone] | > 10 | 0.0427

Further lines, results first:

IC50 [1] [µM] | IC50 (recombinant human cGAS) [µM] | Compound
> 10 | 0.0251 | NC(=O)CCC(=O)N1CCn2c(c(-c3cn[nH]c3)c3ccc(Cl)c(Cl)c32)C1 [Example 297, 4-(6,7-Dichloro-10-(1H-pyrazol-4-yl)-3,4-dihydropyrazino[1,2-a]indol-2(1H)-yl)-4-oxobutanamide]
> 10 | 0.0234 | O=C(CC1COCCOC1)N1CCn2c(c(-c3cn[nH]c3)c3ccc(Cl)c(Cl)c32)C1 [Example 298, 1-(6,7-Dichloro-10-(1H-pyrazol-4-yl)-3,4-dihydropyrazino[1,2-a]indol-2(1H)-yl)-2-(1,4-dioxepan-6-yl)ethan-1-one]
> 10 | 0.0257 | O=C(CC1COCCO1)N1CCn2c(c(-c3cn[nH]c3)c3ccc(Cl)c(Cl)c32)C1 (stereo not drawn) [Example 299, 1-(6,7-Dichloro-10-(1H-pyrazol-4-yl)-3,4-dihydropyrazino[1,2-a]indol-2(1H)-yl)-2-(1,4-dioxan-2-yl)ethan-1-one]
> 10 | 0.0288 | CN1CCC(CC(=O)N2CCn3c(c(-c4cn[nH]c4)c4ccc(Cl)c(Cl)c43)C2)C1=O (stereo not drawn) [Example 300, 3-(2-(6,7-Dichloro-10-(1H-pyrazol-4-yl)-3,4-dihydropyrazino[1,2-a]indol-2(1H)-yl)-2-oxoethyl)-1-methylpyrrolidin-2-one]
> 10 | 0.0291 | CN(C)C(=O)COCC(=O)N1CCn2c(c(-c3cn[nH]c3)c3ccc(Cl)c(Cl)c32)C1 [Example 301, 2-(2-(6,7-Dichloro-10-(1H-pyrazol-4-yl)-3,4-dihydropyrazino[1,2-a]indol-2(1H)-yl)-2-oxoethoxy)-N,N-dimethylacetamide]
6.95 | 0.0323 | CN(C)C(=O)CC(=O)N1CCn2c(c(-c3cn[nH]c3)c3ccc(Cl)c(Cl)c32)C1 [Example 302, 3-(6,7-Dichloro-10-(1H-pyrazol-4-yl)-3,4-dihydropyrazino[1,2-a]indol-2(1H)-yl)-N,N-dimethyl-3-oxopropanamide]
8.47 | 0.0351 | O=C1COCCN1CCC(=O)N1CCn2c(c(-c3cn[nH]c3)c3ccc(Cl)c(Cl)c32)C1 [Example 304, 4-(3-(6,7-Dichloro-10-(1H-pyrazol-4-yl)-3,4-dihydropyrazino[1,2-a]indol-2(1H)-yl)-3-oxopropyl)morpholin-3-one]
> 10 | 0.0378 | CN1CC(C(=O)N2CCn3c(c(-c4cn[nH]c4)c4ccc(Cl)c(Cl)c43)C2)CCC1=O (stereo not drawn) [Example 305, 5-(6,7-Dichloro-10-(1H-pyrazol-4-yl)-1,2,3,4-tetrahydropyrazino[1,2-a]indole-2-carbonyl)-1-methylpiperidin-2-one]
> 10 | 0.0379 | COCCOCC(=O)N1CCn2c(c(-c3cn[nH]c3)c3ccc(Cl)c(Cl)c32)C1 [Example 306, 1-(6,7-Dichloro-10-(1H-pyrazol-4-yl)-3,4-dihydropyrazino[1,2-a]indol-2(1H)-yl)-2-(2-methoxyethoxy)ethan-1-one]
> 10 | 0.0398 | O=C(CN1C(=O)CSC1=O)N1CCn2c(c(-c3cn[nH]c3)c3ccc(Cl)c(Cl)c32)C1 [Example 307, 3-(2-(6,7-Dichloro-10-(1H-pyrazol-4-yl)-3,4-dihydropyrazino[1,2-a]indol-2(1H)-yl)-2-oxoethyl)thiazolidine-2,4-dione]
7.9 | 0.0423 | CC(=O)N(C)CCC(=O)N1CCn2c(c(-c3cn[nH]c3)c3ccc(Cl)c(Cl)c32)C1 [Example 308, N-(3-(6,7-Dichloro-10-(1H-pyrazol-4-yl)-3,4-dihydropyrazino[1,2-a]indol-2(1H)-yl)-3-oxopropyl)-N-methylacetamide]
